Data taken from US10987403B2, “Cyclodextrin-Nle3-A(1-7) compositions and their use” (University of Southern California, priority 2017, dated 2021).
Where no end group is shown, it is not given here. [ ]: non-standard residue; d: D form. Nle = CCCC[C@H](N)C(=O)O

Tests used:
[1] = tested on: gemcitabine-treated mice; assay: White blood cell counts in gemcitabine-treated mice (oral efficacy study); format: in vivo, C57Bl/6 mice; details: subcutaneous, 0.3 mg/kg daily for 21 days after 160 mg/kg gemcitabine; FIG. 1
Procedure: (§1) The female C57Bl/6 mice (7 per group), 6-8 weeks old, were treated with the formulations described above daily starting 1 day after intravenous injection with chemotherapy, 160 mg/kg gemcitabine. On days 1, 3, 7, 15 and 21 after chemotherapy administration, blood was taken under anesthesia from the saphenous vein to assess white blood cell, and platelet numbers. On day 22, the mice were euthanized and bone marrow collected to assess the number of colony forming units.
(§2) The mice were bled from the saphenous vein. The mice were anesthetized by placing the nose of the animals in a 50 ml conical tube containing cotton balls soaked with isoflurane (an inhaled anesthesia). […]
(§3) Twenty μl of blood was mixed with 180 μl of RBC lysing solution (0.83% NH4Cl, 10 mM EDTA, 0.5% NaHCO3). […] This mixture was vortexed and the number of WBC was evaluated by hematocytometer under light microscopy and the number of platelets was evaluated by hematocytometer under phase contrast microscopy.
(§4) In order to assess the oral efficacy, gemcitabine-treated mice were treated daily for 21 days with five treatments: 1) SQ dosed saline, 2) SQ dosed A(1-7) at 0.3 mg/kg, 3) SQ dosed NorLeu3-A(1-7) at 0.3 mg/kg, 4) orally dosed β-CD formulated A(1-7) at 0.3 mg/kg, or 5) orally dosed β-CD formulated NorLeu-A(1-7)) at 0.3 mg/kg. The effects of these treatments on peripheral blood counts were assessed.

[2] = tested on: gemcitabine-treated mice; assay: Platelet counts in gemcitabine-treated mice (oral efficacy study); format: in vivo, C57Bl/6 mice; details: subcutaneous, 0.3 mg/kg daily for 21 days after 160 mg/kg gemcitabine; FIG. 3
Procedure: as §1, §2, §3, §4

| Substance | number of circulating WBC [1] | circulating platelet numbers [2] |
| --- | --- | --- |
| Asp-Arg-Nle-Tyr-Ile-His-Pro (DR[Nle]YIHP) [NorLeu3-A(1-7), dosed subcutaneously as comparator] | increased the number of circulating WBC | did not circulating platelet numbers |
| angiotensin (1-7) (DRVYIHP; Angiotensin 1-7; UniProt P01019 25-31, looked up, fragment) [A(1-7), Investigational Mas agonist peptide] | increased the number of circulating WBC | – |
